The source of these data is patent publication US4017632A, “Phenoxyacetic acid derivatives” (Centre European de Recherches Pharmacologiques C.E.R.P.H.A., priority 1975, dated 1977).

A short description of series [1]: Acute toxicity per os in mice. Conditions: mouse, in vivo, po; for LD50 at 48 h: male mice (Swiss C.D), per os, mortality after 48 hours, read-out: LD 50 per os. Here is the method: The compounds were administered in the usual way to lots of 10 male mice (Swiss C.D) of average weight 20 g. Mortality was assessed after 48 hours for toxicity per os.
The subject of series [2] is urinary excretion and clearance of uric acid. The series is described as follows: Uricosuric activity in the phosphate-mannitol infused mongrel dog (renal clearance). The format is in vivo. Here is the method: The uricosuric activity of the compound of example 1 was further studied.
The uricosuric activity is determined by intravenous administration of a test compound to the phosphate-mannitol infused mongrel dog as a rapid injection at doses of 5 or 15 mg/kg. Renal clearance studies are compared against control experiments conducted in the same dogs. The urate clearance is calculated from the plasma and urinary concentrations. […] For example, compound of example 1 at a dose of 5 mg/kg i.v. increased urate excretion as a percentage of glomerular filtration rate from a value of 27% up to 40% and at a dose of 15 mg/kg i.v. increased it from 28% up to 74%.

The subject of series [3] is retention of phenol red in the circulation. The experiment in a line: Uricosuric activity: retention of phenol red in the circulation of the rat. It counts as in vivo. Conditions: 100 mg/kg per os; for % of retention (phenol red), 15 mn: 15 min after phenol red injection; for % of retention (phenol red), 30 mn: 30 min after phenol red injection; for % of retention (phenol red), 45 mn: 45 min after phenol red injection; for % of retention (phenol red), 60 mn: 60 min after phenol red injection. As to the method:
This activity was determined by the ability of the compounds to cause retention of phenol red in the circulation of the rat, method described by
Scarborough h. c. and M. C. KINNEY G. R. --
The products were administered one hour before phenol red injection to batches of 5 rats of 250-280 g; anesthetized with ether, the animals received an I.V. injection of 1 cm3 of a 1% phenol red solution. Blood samplings were made 15, 30, 45 and 60 minutes after injection. The pink colour develop after addition to the plasma of an N/10 aqueous solution of sodium hydroxide.
For instance the compounds of examples 5 and 1, and benziodarone give the following results for a dosis of 100 mg/kg per os.

A further series relates to diuresis. The series is described as follows: Diuretic activity in mice. The format is in vivo. Here is the method:
The activity is determined on mice. The ratio R of the mean values of diuresis obtained for the treated animals to the mean values for control animals are determined.

Regarding `O=C(O)COc1ccc(C(O)c2cccs2)c(Cl)c1Cl` (centres unmarked) [Example 1, 2,3-dichloro-4-(2-thienyl-hydroxy-methyl)-phenoxy-acetic acid], the LD50 at 48 h in series [1] was 1000 mg/kg. For the same molecule, the “urate excretion as a percentage of glomerular filtration rate” value in series [2] (5 mg/kg i.v., increased from a value of 27%) is on record as 40%. Further, the “urate excretion as a percentage of glomerular filtration rate” value in series [2] (15 mg/kg i.v., increased from 28%) came out at 74%. For the same molecule, in series [3], the “% of retention (phenol red), 15 mn” value worked out at 51%; the “% of retention (phenol red), 30 mn” value is given as 44%; the “% of retention (phenol red), 45 mn” value was found to be 31%; the “% of retention (phenol red), 60 mn” value stood at 28%. The “ratio R of mean diuresis of treated animals to control animals” value with diuresis (100 mg/kg P.O.) is given as 1.6.

Regarding `O=C(O)COc1c(Br)cc(C(O)c2cccs2)cc1Br` (centres unmarked) [Example 5, 2,6-dibromo-4-(2-thienyl-hydroxy-methyl)-phenoxy-acetic acid], in series [1], the LD50 at 48 h was > 1000 mg/kg. In series [3], the “% of retention (phenol red), 15 mn” value is on record as 68%; the “% of retention (phenol red), 30 mn” value was 123%; the “% of retention (phenol red), 45 mn” value is listed as 105%; the “% of retention (phenol red), 60 mn” value was determined as 58%.

Consider `CCc1oc2ccccc2c1C(=O)c1cc(I)c(O)c(I)c1` [benziodarone, reference compound], for which, in series [1], the LD50 at 48 h came out at 1400 mg/kg. In series [3], the “% of retention (phenol red), 15 mn” value turned out to be 37%; the “% of retention (phenol red), 30 mn” value turned out to be 50%; the “% of retention (phenol red), 45 mn” value was determined as 53%; the “% of retention (phenol red), 60 mn” value came out at 18%.

With `C=C(CC)C(=O)c1ccc(OCC(=O)O)c(Cl)c1Cl` [ethacrynic acid, reference compound], in series [1] (P.O., ethacrynic acid, given in the diuretic activity section, read-out: DL 50 P.O.), the LD50 came out at 600 mg/kg. Moreover, the “ratio R of mean diuresis of treated animals to control animals” value in the series with diuresis (20 mg/kg P.O.) was 2.4.
